Biological target: GSK3β (Homo sapiens, UniProt P49841)
Assay: Inhibitory activity against GSK3β (33P-ATP phosphorylation of prephosphorylated GS1 peptide, two protocols)
Format: biochemical
Settings: protocol 1 or 2 not specified
Experimental: Inhibitory Activity of the Medicament of the Present Invention Against GSK3β
Two different protocols can be used.
In a first protocol: 7.5 μM of prephosphorylated GS1 peptide and 10 μM ATP (containing 300,000 cpm of ^33P-ATP) were incubated in 25 mM Tris-HCl, pH 7.5, 0.6 mM DTT, 6 mM MgCl2, 0.6 mM EGTA, 0.05 mg/ml BSA buffer for 1 hour at room temperature in the presence of GSK3beta (total reaction volume: 100 microliters).
In a second protocol: 4.1 μM of prephosphorylated GS1 peptide and 42 μM ATP (containing 260,000 cpm ^33P-ATP) were incubated in 80 mM Mes-NaOH, pH 6.5, 1 mM Mg acetate, 0.5 mM EGTA, 5 mM 2-mercaptoethanol, 0.02% Tween 20, 10% glycerol buffer for 2 hours at room temperature in the presence of GSK3beta. Inhibitors were solubilized in DMSO (final solvent concentration in the reaction medium, 1%).
The reaction was stopped with 100 microliters of a solution made of 25 g polyphosphoric acid (85% P2O5), 126 ml 85% H3PO4, H2O to 500 ml and then diluted to 1:100 before use. An aliquot of the reaction mixture was then transferred to Whatman P81 cation exchange filters and rinsed with the solution described above. Incorporated ^33P radioactivity was determined by liquid scintillation spectrometry.
The phosphorylated GS-1 peptide had the following sequence: NH2-[…](P)EDEE-COOH. SEQ ID NO: 1 (Woodgett, J. R. (1989) Analytical Biochemistry 180, 237-241. […]

GSK3β, sequence (P49841 whole entry): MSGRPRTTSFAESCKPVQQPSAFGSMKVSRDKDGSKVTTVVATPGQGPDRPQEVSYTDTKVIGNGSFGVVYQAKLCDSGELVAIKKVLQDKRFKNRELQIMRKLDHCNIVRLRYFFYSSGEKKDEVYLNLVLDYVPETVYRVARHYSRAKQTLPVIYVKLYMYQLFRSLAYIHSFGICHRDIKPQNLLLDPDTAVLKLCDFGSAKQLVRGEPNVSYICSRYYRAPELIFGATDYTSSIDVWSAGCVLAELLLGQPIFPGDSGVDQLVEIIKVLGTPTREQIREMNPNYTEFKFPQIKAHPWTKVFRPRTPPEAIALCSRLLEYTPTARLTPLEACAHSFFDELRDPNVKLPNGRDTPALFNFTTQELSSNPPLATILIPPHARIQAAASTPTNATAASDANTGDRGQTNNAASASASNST

COc1cc(Cl)ccc1C(=O)NCCc1nc(-c2ccncn2)cc(=O)n1C [No. 1]
IC50: 85 nM

Reference: patent publication US8598187B2, “Arylamide pyrimidone compounds” (Sanofi, priority 2007, dated 2013)
